Data set [1] concerns certain human breast cancer cell lines. The following applies: WO 95/06469; cited from earlier work.
A further data set has as its system MCF-7 cells. Kind of data set: Conversion of prodrug to parent in culture of MCF-7 cells. Format: cell-based.
The next data set concerns MCF-7. Kind of data set: In vitro cytotoxicity, 3-day MTT assay, MCF-7. Format: cell-based, human. The following applies: 3-day MTT assay, n=8. The protocol: (§1) In carrying out the following cytoloxicity assays, the method used corresponds substantially to the following example: • Cells were maintained in a continuous logarithmic culture in RMPI 1640 with L-glutamine medium, supplemented with 10% fetal calf serum, penicillin (100 IU/ml) and streptomycin (100 μg/ml). The cells were mildly trypsinized for passage and for use in assays. • On day one, 180 μl of trypsinized tumour cells (5×10^3 ml^−1) were placed in the wells of 96-well, flat-bottom microtiter plates. Columns 1 and 12 were filled with 300 μl medium to protect from evaporation. The plates were incubated for 24 hours at 37° C. and 5% CO2 in air to allow the cells to adhere and resume exponential growth prior to the addition of drugs. The compounds being tested were dissolved in DMSO and stored as 10 mM stock solutions at 4° C., protected from light. […] 20 μl of drug dilution was added to the other wells with the lowest concentration in column 3 and the highest concentration in column 11. The plates were incubated for 72 hours at 37° C. and 5% CO2 in air. Each compound was tested in triplicate. At the time of drug addition, a plate of untreated cells was read to provide an initial optical density value for use in the calculation of the IC50. • On day five the plates were read. 50 μl MTT (1 mg/ml^−1) was added per well and the plates incubated for a further 4 hours. The MTT is metaboliscd to form a blue formazan product. The MTT solution was aspirattd and 125 μl DMSO:glycine buffer (4:1) was added. The plates were placed on a plate shaker until the fornazan crystals had dissolved and absorbance was ready at 550 nm on a plate reader. • For each compound tested, a dose response curve was obtained and the IC50 statue (drug concentration at 50% inhibition of cell growth) was calculated.
(§2) (n=8) for a range of compounds in relation to MCF-7 and MDA 468 cell lines.
On the technique in general: Formazan colour is commonly taken as a measure of viable cells.

Data set [2] can be described thus: Stability in plasma in vitro. Format: in vitro ADME, rat.
Another data set deals with MDA468. Kind of data set: In vitro cytotoxicity, 3-day MTT assay, MDA468. The settings on record: n=8. Format: cell-based. As to the method:
as §1, §2

Another data set concerns COLO205 xenografts. As to the kind of experiment: In vivo COLO205 xenograft study (FIG. 2).
Data set [3] concerns ER negative MT-1 human breast tumor xenografts. The settings on record: for in vivo growth retardation of MT-1 xenografts: prodrugs.
For another data set, the system named is sensitive cell lines. Kind of data set: Biphasic dose-response relationship (second growth phase) in sensitive cell lines. Format: cell-based. From the text: One feature of the prior art compounds is that they show a biphasic dose-response relationship specifically in sensitive cell lines: cell kill occurs at low nanomolar concentrations of the compounds, followed by a potentially undesirable proliferative response at low micromolar concentrations (termed the “second growth phase”).

Data set [4] deals with ER positive MCF-7 human breast tumor xenografts. The settings on record: for growth inhibition of MCF-7 xenografts: given i.p.; for in vivo growth retardation of MCF-7 xenografts: prodrugs.
Data set [5] is described as follows: Blood parameters and liver transaminases in xenograft studies. Also noted: species or system nude mice. The settings on record: mouse, in vivo.
Data set [6] is described as follows: Plasma concentrations after administration to mice. The settings on record: mouse, 70 μmol/kg, read-out: Geometric Mean Plasma Concentration. Format: in vivo.
In data set [7] the test system is cell lines that relate to a range of various mammalian cancers other than human breast cancer. The settings on record: WO 96/26932; cited from earlier work.
[8] abbreviates: surviving mice treated with prodrug.
Setting [9] is: rats, i.v., typical dose 25 mg/kg.
Where [10] appears, read: hydrochloride salts, rat and other mammalian plasma.

pIC50: −log10 of the molar value. Read-outs that look alike come from different tables or passages of the source.

By pIC50 is commonly meant the negative decadic logarithm of the IC50, by convention in mol/L. Read a low pIC50 as a high IC50.

`Nc1ccc(-c2nc3ccccc3s2)cc1` [CJM 126, 2-(4′-aminophenyl)benzothiazole]: the “specific inhibitory activity in human breast cancer cell lines” value in data set [1] was “remarkably high specific inhibitory activity”.
Regarding `Cc1cc(-c2nc3cc(F)ccc3s2)ccc1NC(=O)C(N)CCCCN.Cl.Cl` (stereo not drawn) [Compound Iad, 5-Fluoro-2-(4′-amino-3′-methylphenyl)benzothiazole Lysyl Amide Dihydrochloride Salt], the “concentration of parent compound 5F203 after addition of prodrug to MCF-7 culture” value in the data set on MCF-7 cells is reported as “progressive increase in concentration of the parent compound 5F203”. Further, the pIC50 in the data set with MCF-7 is 7.40; with MDA468, 6.80. Moreover, the “removal from plasma and reconversion to parent compound in vivo” value (“removal from plasma and reconversion” below) (rat, in vivo, iv, 25 mg/kg) was “readily removed from such plasma and reconverted to their parent compound in vivo”. Further, the “stability in plasma in vitro” value in [2] (rat, plasma) is “stable”.
On to `Cc1cc(-c2nc3cc(F)ccc3s2)ccc1N` [Compound Ik, 5-Fluoro-2-(4′-amino-3′-methylphenyl)benzothiazole], for which the “tumour growth inhibition, COLO205 xenografts (FIG. 2)” value in the data set on COLO205 xenografts is recorded as “tumour growth inhibition observed”. Moreover, the “toxicity in MT-1 xenograft study” value in data set [3] (25 mg/kg, parent compounds) was “toxic”. In data set [3] (dose dependence), the “tumor growth inhibition in MT-1 xenografts” value (from here on “tumor growth inhibition”) is on record as “dose-dependent tumor growth inhibition” and the “weight loss in MT-1 xenograft study” value is given as “weight loss”. Besides, the “biphasic dose-response (second growth phase)” value in the data set with sensitive cell lines is listed as “the biphasic response is eliminated”. This compound gave a pIC50 in the data set on MCF-7 (Homo sapiens, MCF7, 72 h) of over 10.00. In the data set with MDA468 (72 h), the pIC50 is over 10.00. In addition, the “toxicity in MCF-7 xenograft study” value in data set [4] (12.5 mg/kg, i.p.) is recorded as “toxic”. Also, in data set [4], the “tumour growth inhibition, MCF7 xenografts (FIG. 1)” value was “Tumour growth inhibition observed” and the “growth inhibition of MCF-7 xenografts” value is given as “Significant growth inhibition”. The “blood parameters (white blood cell and platelet counts) and level of liver transaminases” value in [5] is recorded as “not adversely affected”. In data set [6] (mean sample time 3.5 min), the concentration at 3.5 min was found to be 1180 nM. In addition, in data set [6] (mean sample time 6.5 min), the concentration at 6.5 min stood at 1530 nM. In data set [6] (mean sample time 9.5 min), the concentration at 9.5 min is 1840 nM. Also, the concentration at 12.5 min in [6] (mean sample time 12.5 min) turned out to be 2270 nM. In data set [6] (mean sample time 15.5 min), the concentration at 15.5 min turned out to be 3270 nM. Besides, in data set [6] (mean sample time 20.8 min), the concentration at 20.8 min was determined as 2680 nM. In addition, in data set [6] (mean sample time 30.5 min), the concentration at 30.5 min amounted to 3770 nM. Also, the concentration at 45.4 min in data set [6] (mean sample time 45.4 min) amounted to 3410 nM. Moreover, the concentration at 60.5 min in data set [6] (mean sample time 60.5 min) worked out at 4110 nM. Moreover, the concentration at 90.6 min in [6] (mean sample time 90.6 min) turned out to be 3520 nM. Also, the concentration at 120.5 min in data set [6] (mean sample time 120.5 min) amounted to 2630 nM. For the same compound, the concentration at 240 min in data set [6] (mean sample time 240.0 min) was determined as 1000 nM. For the same compound, the concentration at 360 min in data set [6] (mean sample time 360.0 min) came to 590 nM.
Turning to `Cc1cc(-c2nc3ccccc3s2)ccc1N` [DF203, 2-(4′-amino-3′-methylphenyl)benzothiazole, reference compound], in data set [7], the “anti-proliferative activity in cell lines of cancers other than human breast cancer” value is “exhibit anti-proliferative activity selectively”. Besides, the “tumour growth inhibition, MCF7 xenografts (FIG. 1)” value in data set [4] is recorded as “Tumour growth inhibition observed”.
Take `Cc1cc(-c2nc3ccc(F)cc3s2)ccc1N` [Ib, 6-Fluoro-2-(4′-amino-3′-methylphenyl)benzothiazole]: the “tumour growth inhibition, COLO205 xenografts (FIG. 2)” value in the data set with COLO205 xenografts is on record as “tumour growth inhibition observed”. Further, the “growth inhibition of MT-1 xenografts compared with same dose of (Ik)” value in data set [3] (12.5 mg/kg) is “more pronounced growth inhibition”. Moreover, the “tumor growth inhibition” value in [3] (dose dependence) was “dose-dependent tumor growth inhibition”. Moreover, the “weight loss in MT-1 xenograft study” value in [3] (dose dependence) is on record as “weight loss”. Further, in the data set with sensitive cell lines, the “biphasic dose-response (second growth phase)” value was “the biphasic response is eliminated”. In addition, the pIC50 was over 10.00 in the data set with MCF-7 (Homo sapiens, MCF7, 72 h) and 9.96 in the data set on MDA468 (72 h). For the same compound, the “growth inhibition of MCF-7 xenografts” value in data set [4] is on record as “Significant growth inhibition”. Also, in [5], the “blood parameters (white blood cell and platelet counts) and level of liver transaminases” value was “not adversely affected”.
For `Cc1cc(-c2nc3ccccc3s2)ccc1NC(=O)C(C)N.Cl` (stereo not drawn) [Iw, 2-(4′-Amino-3′-methylphenyl)benzothiazole Alanyl Amide Hydrochloride Salt], the “in vivo growth retardation of MT-1 xenografts” value in [3] was “significant in vivo growth retardation”. Also, the “tumor growth inhibition” value in data set [3] (setting [8]) is listed as “moderate tumor growth inhibition”. Besides, the results for the pIC50 in the data set with MCF-7 and in the data set with MDA468 were 6.44 and 6.47, respectively. Also, under setting [9], the “removal from plasma and reconversion” value is “readily removed from such plasma and reconverted to their parent compound in vivo”. Besides, the “stability in plasma in vitro” value in [2] (setting [10]) is given as “stable”. Besides, the “growth retardation of MCF-7 xenografts compared with (Iz)” value in data set [4] (12.5 mg/kg given i.v.) is on record as “greater extent of growth retardation”. The “in vivo growth retardation of MCF-7 xenografts” value in data set [4] is recorded as “significant in vivo growth retardation”.
In the case of `Cc1cc(-c2nc3ccccc3s2)ccc1NC(=O)C(N)CCCCN.Cl.Cl` (stereo not drawn) [Iz, 2-(4′-Amino-3′-methylphenyl)benzothiazole Lysyl Amide Dihydrochioride Salt], in data set [3], the “in vivo growth retardation of MT-1 xenografts” value is “significant in vivo growth retardation”. Further, the “tumor growth inhibition” value in data set [3] (setting [8]) is listed as “moderate tumor growth inhibition”. The pIC50 in the data set on MCF-7 is 7.10; in the data set on MDA468 it was 7.15. Also, the “removal from plasma and reconversion” value under setting [9] is “readily removed from such plasma and reconverted to their parent compound in vivo”. Also, the “stability in plasma in vitro” value in [2] (setting [10]) was “stable”. Also, the body weight loss result in data set [4] (prodrug, dose dependence) is listed as “Dose-dependent body weight loss”. For the same compound, the “in vivo growth retardation of MCF-7 xenografts” value in data set [4] is given as “significant in vivo growth retardation”.

These data come from US6858633B1, “Substituted 2-arylbenzazole compounds and their use as antitumour agents” (Cancer Research Technology Limited, priority 1999, dated 2005).
